Like-named read-outs stand apart in the source and are kept apart here. Marks after values point to notes of the source that are not given here.
Experiments:
[1] = test system: Hbb^th3/+ mice (β-thalassemia model); test: reactive oxygen species (ROS) levels, CM-H2DCFDA; type: in vivo, mouse; conditions: for mean ROS level in red cells: TAT-ICD 5 mg/kg i.p once every other day for 3 weeks
Method: Reactive oxygen species (ROS) are known to be increased in red blood cells in β-thalassemia and are thought to be important in the pathophysiology of the disease, leading to cumulative cell damage. The reactive oxygen species (ROS) levels from erythroid precursor populations was assessed using the General Oxidative Stress Indicator CM-H2DCFDA (Life Technologies, Carlsbad, Calif.) as described (Matte A. et al 2015 Antioxid. Redox Signal 23(16):1284-1297). […] Data are the mean ROS level.

[2] = test system: Hbb^th3/+ mice (β-thalassemia model)

Substance: TAT-ICD: fusion recombinant protein SEQ ID 5: PTPRG intracellular domain aa 797-1445 fused to 13 aa TAT sequence
- ROS levels in bone marrow erythroid precursor populations I-IV ([1]; Hbb mice, all four populations): decreased
- mean ROS level in red cells ([1]; Hbb^th3/+ mice, Untreated 13.75): 9.73*
- mean ROS level in red cells ([1]; Wild-type mice, Untreated 3.32): 2.79
- red cell morphology ([2]; Hbb^th3/+ mice): ameliorated red cell morphological abnormalities
- red cell morphology ([2]; mouse, in vivo): without any changes

From patent US10898548B2, “Modulators of protein tyrosine phosphatase and uses thereof” (LEUVAS THERAPEUTICS, priority 2015, dated 2021)
